From patent US10988478B1, “Pyrazolo[1,5a]pyrimidine derivatives as IRAK4 modulators” (Genentech, Inc., priority 2015, dated 2021)

molecular target: human IRAK4 (Homo sapiens (Human), UniProt Q9NWZ3); assay: IRAK4 kinase inhibition, Transcreener fluorescence polarization ADP assay; format: biochemical; conditions: recombinant full-length His6-IRAK4; 125 uM ATP; 90 min; Ki computed using ATP Km 642 uM
Protocol: Compounds were assayed for inhibition of human IRAK4 and IRAK1 catalytic activity using recombinant enzyme produced from insect cells. Full-length IRAK4 protein, carrying an N-terminal His6-Tag, was obtained from Life Technologies (Carlsbad, Calif., USA). The IRAK1 construct was produced internally and was comprised of IRAK1 residues Arg194 to Ser712, preceded by an NH2-terminal His6 tag and the coding sequence for glutathione-S-transferase.

Chain of human IRAK4 (Q9NWZ3 whole entry, the tested form may be a part): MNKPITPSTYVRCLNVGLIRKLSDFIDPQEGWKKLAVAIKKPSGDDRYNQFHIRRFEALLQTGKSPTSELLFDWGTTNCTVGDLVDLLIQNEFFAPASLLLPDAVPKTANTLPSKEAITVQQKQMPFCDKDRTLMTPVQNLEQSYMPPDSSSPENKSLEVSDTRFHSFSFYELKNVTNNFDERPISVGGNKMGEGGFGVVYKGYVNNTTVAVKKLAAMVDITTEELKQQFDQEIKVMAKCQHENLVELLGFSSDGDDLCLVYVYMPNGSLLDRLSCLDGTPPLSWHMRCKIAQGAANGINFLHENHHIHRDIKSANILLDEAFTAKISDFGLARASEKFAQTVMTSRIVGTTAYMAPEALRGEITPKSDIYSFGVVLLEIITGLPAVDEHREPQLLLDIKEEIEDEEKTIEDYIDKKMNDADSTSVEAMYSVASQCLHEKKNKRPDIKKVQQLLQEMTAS

Compound	Ki [nM]
CN1CCC(N2Cc3cc(NC(=O)c4cnn5cccnc45)c(N4CCN(CC(N)=O)CC4)cc3C2=O)CC1 [Example 281, N-[6-[4-(2-Amino-2-oxo-ethyl)piperazin-1-yl]-2-(1-methyl-4-piperidyl)-1-oxo-isoindolin-5-yl]pyrazolo[1,5-a]pyrimidine-3-carboxamide]	2.4
Cc1cnc2c(C(=O)Nc3cc4c(cc3N3CCN(CC(F)F)CC3)C(=O)N(C[C@@H](F)C(C)(C)O)C4)cnn2c1 [Example 284, N-[6-[4-(2,2-Difluoroethyl)piperazin-1-yl]-2-[(2R)-2-fluoro-3-hydroxy-3-methyl-butyl]-1-oxo-isoindolin-5-yl]-6-methyl-pyrazolo[1,5-a]pyrimidine-3-carboxamide]	2
CC(C)(O)[C@H](F)CN1Cc2cc(NC(=O)c3cnn4cc(Cl)cnc34)c(N3CCN(CC(F)F)CC3)cc2C1=O [Example 285, 6-Chloro-N-[6-[4-(2,2-difluoroethyl)piperazin-1-yl]-2-[(2R)-2-fluoro-3-hydroxy-3-methyl-butyl]-1-oxo-isoindolin-5-yl]pyrazolo[1,5-a]pyrimidine-3-carboxamide]	2
CC(C)(O)[C@H](F)CN1Cc2cc(NC(=O)c3cnn4cc(C(N)=O)cnc34)c(N3CCOCC3)cc2C1=O [Example 286, N3-[2-[(2R)-2-Fluoro-3-hydroxy-3-methyl-butyl]-6-morpholino-1-oxo-isoindolin-5-yl]pyrazolo[1,5-a]pyrimidine-3,6-dicarboxamide]	2
CC(C)(O)CN1Cc2cc(NC(=O)c3cnn4cccnc34)c(N3CCOCC3)cc2S1(=O)=O [Example 288, N-[2-(2-Hydroxy-2-methyl-propyl)-6-morpholino-1,1-dioxo-3H-1,2-benzothiazol-5-yl]pyrazolo[1,5-a]pyrimidine-3-carboxamide]	63
CCOP(=O)(OCC)OCC1(C)Cc2cc(NC(=O)c3cnn4cccnc34)c(N3CCOCC3)cc2O1 (centres unmarked) [Example 290, Diethyl ((2-methyl-6-morpholino-5-(pyrazolo[1,5-a]pyrimidine-3-carboxamido)-2,3-dihydrobenzofuran-2-yl)methyl) phosphate]	180

Results, then the molecule that gave them:

Ki [nM]	Compound
26	CC(C)N1Cc2cc(NC(=O)c3cnn4cccnc34)c(N3CCOCC3)cc2S1(=O)=O [Example 287, N-(2-Isopropyl-6-morpholino-1,1-dioxo-3H-1,2-benzothiazol-5-yl)pyrazolo[1,5-a] pyrimidine-3-carboxamide]
8	CC(C)(O)[C@H](F)CN1Cc2cc(NC(=O)c3cnn4cccnc34)c(N3CCOCC3)cc2S1(=O)=O [Example 289, N-[2-[(2R)-2-Fluoro-3-hydroxy-3-methyl-butyl]-6-morpholino-1,1-dioxo-3H-1,2-benzothiazol-5-yl]pyrazolo[1,5-a]pyrimidine-3-carboxamide]
380	CC1(C)Cc2cc(NC(=O)c3cnn4cccnc34)c(OC[C@H]3CCCN3)cc2O1 [Example 291, (R)—N-(2,2-Dimethyl-6-(pyrrolidin-2-ylmethoxy)-2,3-dihydrobenzofuran-5-yl)pyrazolo[1,5-a]pyrimidine-3-carboxamide]
760	CC1(C)Cc2cc(NC(=O)c3cnn4cccnc34)c(OC[C@H]3CCCN3CC(F)F)cc2O1 [Example 292, (R)—N-(6-((1-(2,2-Difluoroethyl)pyrrolidin-2-yl)methoxy)-2,2-dimethyl-2,3-dihydrobenzofuran-5-yl)pyrazolo[1,5-a]pyrimidine-3-carboxamide]
690	CC1(C)Cc2cc(NC(=O)c3cnn4cccnc34)c(OC[C@@H]3C[C@@H]4C[C@@H]4N3CC(F)F)cc2O1 [Example 293, N-(6-(((1S,3S,5S)-2-(2,2-difluoroethyl)-2-azabicyclo[3.1.0]hexan-3-yl)methoxy)-2,2-dimethyl-2,3-dihydrobenzofuran-5-yl)pyrazolo[1,5-a]pyrimidine-3-carboxamide]
